Here are results for 14 compounds from patent publication US20110160223A1, “NMDA Receptor Antagonists for the Treatment of Neuropsychiatric Disorders” (priority 2008, published 2011).

Each structure is given as a SMILES string. Read-outs that look alike come from different tables or passages of the source.

The test system of data set [1] is Salmonella typhimurium TA98, TA102. In words: Ames test for genotoxicity. As to conditions: 8 conc., 1.5-5000 μg/plate; +/− S9 both; strains TA98, TA102. How it is done: The Ames test determines the ability of a compound to reverse an introduced mutation in two strains of Salmonella typhimurium (selected from TA98, TA100, TA15345, TA1537, and TA102). (See for example Maron, D. M. and Ames, B. N., Mutat. Res., 1983, 113, 173-215.) Compounds were tested at eight dose levels 1.5, 5, 15, 50, 150, 500, 1500, and 5000 μg/plate in both the presence and absence of S-9 microsomal fraction in two bacterial strains (TA98, TA102). After incubation at 37° the number of revertant colonies was compared with the number of spontaneous revertants on negative (vehicle) plates. Positive control plates containing a known mutagen active in each of the strains in the presence of S-9 extract (2-aminoanthracene at 1-5 ug/plate) were also run.
For orientation: The Ames test detects mutagens through reverse mutation in bacteria.

Data set [2] can be described thus: Brain exposure (brain:plasma ratio, Table 24). To be noted: for Kp at 15 min: 15 m. The data set is classed as in vivo, Rats. How it is done:
Animals were fasted overnight prior to dose administration and food returned to the animals two hours after dosing. Following IV dosing, blood samples (ca 200 μL) were collected into separate tubes containing anticoagulant (K-EDTA) via the orbital plexus at various times post administration. Plasma samples were prepared immediately after collection by centrifugation for ten minutes using a tabletop centrifuge, and stored at −80° C. Brain tissue was weighed, homogenized on ice in 50 mM phosphate buffer (2 ml per brain) and the homogenate stored at −80° C. Plasma and brain homogenate samples were extracted by the addition of 5 volumes of cold acetonitrile, mixed well by vortexing and centrifuged at 4000 rpm for 15 minutes. The supernatant fractions were analyzed by LC-MS/MS operating in multiple reaction monitoring mode (MRM). The amount of parent compound in each sample was calculated by comparing the response of the analyte in the sample to that of a standard curve.

Data set [3] relates to MDR1-MDCK cell monolayers that express the multidrug transporter P-gp. In words: In vitro cell permeability assay to predict brain penetration potential. It is filed as in vitro ADME. More on the design: key: High: when Papp A−B≧3.0×10−6 cm/s, and efflux<3.0; Moderate: when Papp A−B≧3.0×10−6 cm/s, and 10>efflux≧3.0; Low: when either Papp A−B≧3.0×10−6 cm/s, and efflux≧10, or when Papp A−B<3.0×10−6 cm/s. As to conditions: 5 μM, pH 7.4, 2 hr, from Papp A-B and efflux ratio. Here is the method:
Penetration Classification (Table 24) using the in vitro cell permeability assay to predict bran penetration potential: Transwell® wells containing MDR1-MDCK cell monolayers that express the multidrug transporter P-gp were used for measuring the percent recovery of compound after dosing both sides of a cell monolayer with the test article. Monolayers were grown for 7-11 days at which time 5 μM of the test article was made by dilution from DMSO stocks into a Hank's balanced salt solution (pH 7.4), final DMSO not greater than 1%, and added to: a) the apical side for A-B permeability (apical to basal) assessment, or separately b) the basal side for the B-A permeability (basal to apical) assessment, all at pH 7.4. After a 2 hr incubation (37° C.) both the apical and the basal compartments were sampled and the amount of test article present determined by generic LC-MS/MS methods against a ≧4 point calibration curve. Experiments were done in duplicate. Apparent permeability (Papp units are reported×10−6 cm/s) are determined for the A−B and the B−A directions as well as the Efflux ratio (PappB−A/Papp A−B). The blood-brain barrier penetration potential is classified as follows: “High” when Papp A−B≧3.0×10−6 cm/s, and efflux<3.0; “Moderate” when Papp A−B≧3.0×10−6 cm/s, and 10>efflux≧3.0; and “Low” when either Papp A−B≧3.0×10−6 cm/s, and efflux≧10, or when Papp A−B<3.0×10−6 cm/s.

The mark [4] stands for this setting: rat, brain and plasma, iv, 3 mg/kg, 3 MPK i.v., 30 m, read-out: RATIO: Brain:plasma (Direct).
Setting [5] is: rat, brain and plasma, iv, 3 mg/kg, 3 MPK i.v., 1 hr, read-out: RATIO: Brain:plasma (Direct).
[6] abbreviates: rat, brain and plasma, iv, 3 mg/kg, 3 MPK i.v., avg, read-out: RATIO: Brain:plasma (Direct).

As for `CCCCN(CCc1ccc(Cl)c(Cl)c1)CC(O)COc1ccc(NS(C)(=O)=O)cc1` (stereo not shown) [Compound 93-31], the “Genotoxicity (Ames) Result” value in data set [1] is on record as “No positive”.

On to `Nc1ccc(OC[C@@H](O)CN2CCN(c3ccc(Cl)c(Cl)c3)C2=O)cc1` [NP10226], for which the “Genotoxicity (Ames) Result” value in data set [1] is “No positive”.

On to `Oc1ccc(OC[C@@H](O)CSc2nc3cc(Cl)c(Cl)cc3[nH]2)cc1` [drawing 808], for which, in data set [2] (3 MPK i.v., 2 hr), the “RATIO: Brain:plasma (Direct)” value is listed as “BLQ”. Moreover, the Kp at 30 min in data set [2] (setting [4]) stood at 0.15. Besides, the Kp at 1 h in data set [2] (setting [5]) worked out at 0.35. Further, in data set [2] (setting [6]), the Kp worked out at 0.25. Besides, the “BBB Pene Classification” value in data set [3] was “High (when Papp A−B≧3.0×10−6 cm/s, and efflux<3.0)”.

Turning to `O=C1N(C[C@H](O)COc2ccc(O)cc2)CCN1c1ccc(Cl)cc1` [drawing 804], the Kp at 30 min in data set [2] (setting [4]) turned out to be 0.68. For the same compound, in data set [2] (setting [5]), the Kp at 1 h is 0.49. For the same compound, in data set [2] (setting [6]), the Kp came to 0.59. Besides, in data set [3], the “BBB Pene Classification” value was “High (when Papp A−B≧3.0×10−6 cm/s, and efflux<3.0)”.

Consider `O=c1[nH]c2ccc(OC[C@@H](O)CN3CCN(c4ccc(Cl)cc4)CC3)cc2[nH]1` [NP10122], for which the “Genotoxicity (Ames) Result” value in data set [1] was “No positive”.

In the case of `Nc1ccc(OC[C@@H](O)CN2CCN(c3ccc(Cl)cc3)CC2)cc1` [NP10231], the “Genotoxicity (Ames) Result” value in data set [1] is “No positive”.

As to `O=c1[nH]c2ccc(OC[C@@H](O)CN3CCN(c4ccc(Cl)cc4)CC3)cc2o1` [NP10056], the “Genotoxicity (Ames) Result” value in data set [1] is listed as “No positive”.

Take `Cc1ccc(N2CCN(C[C@H](O)COc3ccc4[nH]c(=O)oc4c3)CC2)cc1` [drawing 801]: in data set [2] (setting [4]), the Kp at 30 min is 2.3. For the same compound, the Kp at 1 h in data set [2] (setting [5]) is 2.9. Moreover, the Kp at 2 h in data set [2] (rat, brain and plasma, iv, 3 mg/kg, 3 MPK i.v., 2 hr, read-out: RATIO: Brain:plasma (Direct)) is 1.7. In data set [2] (setting [6]), the Kp is 2.3. Further, the “BBB Pene Classification” value in data set [3] is “Moderate (when Papp A−B≧3.0×10−6 cm/s, and 10>efflux≧3.0)”.

Take `NC(=O)Nc1ccc(OC[C@@H](O)CN2CCN(c3ccc(Cl)cc3)CC2)cc1` [drawing 803]: the Kp at 30 min in data set [2] (rat, brain and plasma, iv, 1 mg/kg, 1MPK i.v., 30 m, read-out: RATIO: Brain:plasma (Direct)) amounted to 0.24. Also, the Kp at 6 h in data set [2] (rat, brain and plasma, iv, 3 mg/kg, 3 MPK i.v., 6 hr, read-out: RATIO: Brain:plasma (Direct)) was 0.49. In data set [2] (rat, brain and plasma, iv, 3 MPK i.v. @ 6 hr, 1MPK @ 0.5 hr and 2 hr, 1 hr, read-out: RATIO: Brain:plasma (Direct)), the Kp at 1 hr was 0.53. The Kp in data set [2] (rat, brain and plasma, iv, 3 MPK i.v. @ 6 hr, 1MPK @ 0.5 hr and 2 hr, avg, read-out: RATIO: Brain:plasma (Direct)) is 0.42. Also, the “BBB Pene Classification” value in data set [3] was “Low”.

Regarding `CS(=O)(=O)Nc1ccc(OC[C@@H](O)CN2CCN(c3ccc(F)c(F)c3)CC2)cc1` [drawing 802], the Kp at 30 min in data set [2] (rat, brain and plasma, ip, 60 mg/kg, 60 MPK, i.p., 30 m, read-out: RATIO: Brain:plasma (Direct)) amounted to 0.7. Besides, in data set [2] (rat, brain and plasma, ip, 60 mg/kg, 60 MPK, i.p., 2 hr, read-out: RATIO: Brain:plasma (Direct)), the Kp at 2 h is 0.7. Further, in data set [2] (rat, brain and plasma, ip, 60 mg/kg, 60 MPK, i.p., 4 hr, read-out: RATIO: Brain:plasma (Direct)), the Kp at 4 h turned out to be 0.9. Also, the Kp in data set [2] (rat, brain and plasma, ip, 60 mg/kg, 60 MPK, i.p., avg, read-out: RATIO: Brain:plasma (Direct)) was found to be 0.77. Moreover, the “BBB Pene Classification” value in data set [3] is “Moderate (when Papp A−B≧3.0×10−6 cm/s, and 10>efflux≧3.0)”.

Turning to `O=C(COc1ccc2[nH]c(=O)oc2c1)N1CCN(c2ccc(Cl)c(Cl)c2)CC1` [drawing 806], the Kp at 15 min in data set [2] (rat, brain and plasma, ip, 10 mg/kg, 10 MPK i.p., read-out: RATIO: Brain:plasma (Direct)) was found to be 0.25. In addition, the Kp at 30 min in data set [2] (rat, brain and plasma, ip, 10 mg/kg, 10 MPK i.p., 30 m, read-out: RATIO: Brain:plasma (Direct)) turned out to be 0.49. Also, the Kp at 1 h in data set [2] (rat, brain and plasma, ip, 10 mg/kg, 10 MPK i.p., 1 hr, read-out: RATIO: Brain:plasma (Direct)) turned out to be 0.3. Besides, in data set [2] (rat, brain and plasma, ip, 10 mg/kg, 10 MPK i.p., 2 hr, read-out: RATIO: Brain:plasma (Direct)), the Kp at 2 h amounted to 0.36. In addition, the Kp in data set [2] (rat, brain and plasma, ip, 10 mg/kg, 10 MPK i.p., avg, read-out: RATIO: Brain:plasma (Direct)) was 0.33. Besides, the “BBB Pene Classification” value in data set [3] was “Moderate (when Papp A−B≧3.0×10−6 cm/s, and 10>efflux≧3.0)”.

Consider `Oc1ccc(OC[C@@H](O)CN2CCN(c3ccc(Cl)cc3)CC2)cc1` [drawing 800], for which the Kp at 30 min in data set [2] (setting [4]) was determined as 11. In addition, the Kp at 1 h in data set [2] (setting [5]) stood at 9.5. The Kp in data set [2] (setting [6]) was determined as 10.2. Also, the “BBB Pene Classification” value in data set [3] was “High (when Papp A−B≧3.0×10−6 cm/s, and efflux<3.0)”.

In the case of `O=C(COc1ccc2[nH]c(=O)[nH]c2c1)N1CCN(c2ccc(Cl)c(Cl)c2)CC1` [drawing 807], in data set [2] (rat, brain and plasma, iv, 1 mg/kg i.v., read-out: RATIO: Brain:plasma (Direct)), the Kp at 15 min is 0.04. Also, the Kp at 30 min in data set [2] (rat, brain and plasma, iv, 1 mg/kg i.v., 30 m, read-out: RATIO: Brain:plasma (Direct)) was 0.06. Further, the Kp at 1 h in data set [2] (rat, brain and plasma, iv, 1 mg/kg i.v., 1 hr, read-out: RATIO: Brain:plasma (Direct)) came to 0.07. In addition, the Kp at 3 h in data set [2] (rat, brain and plasma, iv, 1 mg/kg i.v., 3 hr, read-out: RATIO: Brain:plasma (Direct)) is 0.1. Besides, the Kp in data set [2] (rat, brain and plasma, iv, 1 mg/kg i.v., avg., read-out: RATIO: Brain:plasma (Direct)) was 0.07. For the same compound, the “BBB Pene Classification” value in data set [3] was “Moderate (when Papp A−B≧3.0×10−6 cm/s, and 10>efflux≧3.0)”.

For `O=c1[nH]c2ccc(OC[C@@H](O)CSc3nc4cc(Cl)c(Cl)cc4[nH]3)cc2o1` [drawing 809], the “RATIO: Brain:plasma (Direct)” value in data set [2] (3 MPK i.v., 30 m) was “BLQ (avg); BLQ (30 m), BLQ (1 hr),”; in data set [2] (3 MPK i.v., 1 hr), “BLQ (avg); BLQ (30 m), BLQ (1 hr),”; in data set [2] (3 MPK i.v., avg) it was “BLQ (avg); BLQ (30 m), BLQ (1 hr),”. In data set [3], the “BBB Pene Classification” value was “Moderate (when Papp A−B≧3.0×10−6 cm/s, and 10>efflux≧3.0)”.
